Measured values as given in patent publication US20040157738A1, “Novel oxygen containing fused cyclic derivatives and herbicidal, desiccant and defoliate compositions containing them” (ISHIHARA SANGYO KAISHA, LTD., priority 2003, published 2004).

Assays:
Type in all cases: in vivo
[1] = system: green foxtail (Setaria viridis L.), SETVI; assay: Test Example 2: post-emergence (foliage treatment) herbicidal activity (growth controlling degree); details: 1.7-2.5 leaf stage
Source text: (§1) Upland field soil was put into a 1/170,000 ha pot, and seeds of various plants were sown. Then, when the plants reached predetermined leaf stages [I. barnyardgrass (Echinochloa crus-galli L.), ECHCG: 1.8-2.4 leaf stage, 2. crabgrass (Digitaria sanguinalis L.), DIGSA: 1.5-2.2 leaf stage, 3. green foxtail (Setaria viridis L.), SETVI: 1.7-2.5 leaf stage, 4. redroot pigweed (Amaranthus retroflexus L.), AMARE: 0.1-0.3 leaf stage, 5. prickly sida (Sida spinosa L.), SIDSP: 0.3-0.5 leaf stage, 6. velvetleaf (Abutilon theophrasti), ABUTH: 0.3-0.4 leaf stage, 7. common cocklebur (Xanthium strumarium L.), XANST: 0.2-0.6 leaf stage, 8. rice (Oryza sativa L.), ORYSA: 1.6-2.2 leaf stage, 9. wheat (Triticum aestivum L.), TRZAX: 2.8 leaf stage, 10. corn (Zea mays L.), ZEAMX: 2.2-2.5 leaf stage, 11. soybean (Glycine max Merr.), GLXMA: 0.2-0.3 leaf stage], a wettable powder or emulsifiable concentrate having the compound of the present invention formulated in accordance with a usual formulation method, was weighed so that the active ingredient would be a predetermined amount, and diluted with water in an amount of 500 L/ha. To the diluted solution, 0.1%(v/v) of an agricultural spreader was added. The herbicide adjusted was applied by a small size sprayer for foliage treatment. On the […] day after the application of the herbicide, the growth of the respective plants was visually observed, and the herbicidal effects were evaluated by growth controlling degrees (%) ranging from 0 (equivalent to the untreated control) to 100 (complete kill), whereby the results shown in Table 12, were obtained. Compound Nos. in Table 12 correspond to Compound Nos. in Table 1 to 7 given hereinbefore.

[2] = system: barnyardgrass (Echinochloa crus-galli L.), ECHCG; assay: as above; details: 1.8-2.4 leaf stage
Source text: as §1

[3] = system: rice (Oryza sativa L.), ORYSA; assay: as above; details: 1.6-2.2 leaf stage
Source text: as §1

[4] = system: common cocklebur (Xanthium strumarium L.), XANST; assay: as above; details: Xanthium strumarium, 504 h, 31 g a.i./ha, 0.2-0.6 leaf stage
Source text: as §1

[5] = system: corn (Zea mays L.), ZEAMX; assay: as above; details: 2.2-2.5 leaf stage
Source text: as §1

[6] = system: prickly sida (Sida spinosa L.), SIDSP; assay: as above; details: 0.3-0.5 leaf stage
Source text: as §1

[7] = system: velvetleaf (Abutilon theophrasti), ABUTH; assay: as above; details: 0.3-0.4 leaf stage
Source text: as §1

[8] = system: soybean (Glycine max Merr.), GLXMA; assay: as above; details: 0.2-0.3 leaf stage
Source text: as §1

[9] = system: redroot pigweed (Amaranthus retroflexus L.), AMARE; assay: as above; details: 0.1-0.3 leaf stage
Source text: as §1

[10] = system: crabgrass (Digitaria sanguinalis L.), DIGSA; assay: as above; details: 1.5-2.2 leaf stage
Source text: as §1

[11] = system: japanese bulrush (Scirpus juncoides: SCPJO); assay: Test Example 3: water application herbicidal activity, paddy (growth controlling degree); details: rate 63 g a.i./ha, water application under submerged condition, paddy pot, japanese bulrush at 0.5 leaf stage
Source text: (§2) Paddy field soil was put into a {fraction (1/1,000,000)} ha pot, and seeds of barnyardgrass (Echinochloa oryzicola: ECHOR) and japanese bulrush (Scirpus juncoides: SCPJO) were sown and slightly covered with soil. Then the pot was left to stand still in a greenhouse in a state where the depth of flooding water was from 0.5 to 1 cm, and one day later, tubers of japanese ribbon wapato (Sagittaria pygmaea: SAGPY) were planted. Thereafter, the depth of flooding water was maintained at a level of from 3 to 4 cm, and when barnyardgrass and japanese bulrush reached a 0.5 leaf stage, an aqueous diluted solution of a wettable powder or emulsifiable concentrate having the compound of the present invention formulated in accordance with a usual formulation method, was uniformly applied under submerged condition by a pipette so that the dose of the active ingredient would be at a predetermined level. On the other hand, paddy filed soil was put into a {fraction (1/1,000,000)} ha pot and puddled and leveled, and the depth of flooding water was from 3 to 4 cm. One day later, rice (Oryza sativa L.: ORYSA) of 2 leaf stage was transplanted in a depth of 3 cm. On the 4th day after the transplantation, the compound of the present invention was applied in the same manner as described above. On the 14th day after the application of the herbicide, the growth of barnyardgrass, japanese burlush and japanese ribbon wapato was visually observed and on the 21st day after the application of the herbicide, the growth of rice was visually observed, and the herbicidal effects were evaluated by growth controlling degrees (%) ranging from 0 (equivalent to the untreated control) to 100 (complete kill), whereby the results shown in Table 13, were obtained. Compound Nos. in Table 13 correspond to Compound Nos. in Table 1 to 7 given hereinbefore.

[12] = system: rice (Oryza sativa L.: ORYSA); assay: as above; details: rate 63 g a.i./ha, paddy pot, rice of 2 leaf stage transplanted, treated on the 4th day after transplantation
Source text: as §2

[13] = system: barnyardgrass (Echinochloa oryzicola: ECHOR); assay: as above; details: rate 63 g a.i./ha, water application under submerged condition, paddy pot, barnyardgrass at 0.5 leaf stage
Source text: as §2

[14] = system: japanese ribbon wapato (Sagittaria pygmaea: SAGPY); assay: as above; details: rate 63 g a.i./ha; water application under submerged condition, paddy pot; tubers of japanese ribbon wapato planted
Source text: as §2

[15] = system: prickly sida (Sida spinosa L.): SIDSP; assay: Test Example 1: pre-emergence herbicidal activity (growth controlling degree); details: 500 g a.i./ha, 20th to 21st day after application
Source text: (§3) Upland field soil was put into a 1/170,000 ha pot, and seeds of various plants [1. barnyardgrass (Echinochloa crus-galli L.): ECHCC, 2. crabgrass (Digitaria sanguinalis L.): DIGSA, 3. green foxtail (Setaria viridis L.): SETVI, 4. redroot pigweed (Amaranthus retroflexus L.): AMARE, 5. prickly sida (Sida spinosa L.): SIDSP, 6. velvetleaf (Abutilon theophrasti): ABUTH, 7. common cocklebur (Xanthium strumarium L.): XANST, 8. rice (Oryza sativa L.): ORYSA, 9. wheat (Triticum aestivum L.): TRZAX, 10. corn (Zea mays L.): ZEAMX, 11. soybean (Glycine max Merr.): GLXMA] were sown. Then, one day after the sowing, a wettable powder or emulsifiable concentrate having the compound of the present invention formulated in accordance with a usual formulation method, was weighed so that the active ingredient would be a predetermined amount, and diluted with water in an amount of 500 L/ha. The herbicide adjusted was applied by a small size sprayer for pre-emergence treatment. On the 20th to 21st day after the application of the herbicide, the growth of the respective plants was visually observed, and the herbicidal effects were evaluated by growth controlling degrees (%) ranging from 0 (equivalent to the untreated control) to 100 (complete kill), whereby the results shown in Table 11, were obtained. Compound Nos. in Table 11 correspond to Compound Nos. in Table 1 to 7 given hereinbefore.

[16] = system: redroot pigweed (Amaranthus retroflexus L.): AMARE; assay: as above; details: 500 g a.i./ha, 20th to 21st day after application
Source text: as §3

[17] = system: velvetleaf (Abutilon theophrasti): ABUTH; assay: as above; details: 500 g a.i./ha, 20th to 21st day after application
Source text: as §3

[18] = system: corn (Zea mays L.): ZEAMX; assay: as above; details: 500 g a.i./ha, 20th to 21st day after application
Source text: as §3

[19] = system: barnyardgrass (Echinochloa crus-galli L.): ECHCC; assay: as above; details: 500 g a.i./ha, 20th to 21st day after application
Source text: as §3

[20] = system: common cocklebur (Xanthium strumarium L.): XANST; assay: as above; details: 500 g a.i./ha, 20th to 21st day after application
Source text: as §3

[21] = system: green foxtail (Setaria viridis L.): SETVI; assay: as above; details: 500 g a.i./ha, 20th to 21st day after application
Source text: as §3

[22] = system: crabgrass (Digitaria sanguinalis L.): DIGSA; assay: as above; details: 500 g a.i./ha, 20th to 21st day after application
Source text: as §3

[23] = system: rice (Oryza sativa L.): ORYSA; assay: as above; details: 500 g a.i./ha, 20th to 21st day after application
Source text: as §3

Cn1nc(-c2c(F)cc(Cl)c3c2CCC(C)(C)O3)c(Cl)c1OC(F)F [Compound 1-40, 4-chloro-3-(8-chloro-6-fluoro-3,4-dihydro-2,2-dimethyl-2H-1-benzopyran-5-yl)-5-(difluoromethoxy)-1-methyl-1H-pyrazole]
pest or weed control at 31 g/ha ([1]; Setaria viridis, 504 h, 31 g a.i./ha): 100% | pest or weed control at 31 g/ha ([2]; Echinochloa crus-galli, 504 h, 31 g a.i./ha): 100% | plant injury at 31 g/ha ([3]; Oryza sativa, 504 h, 31 g a.i./ha): 70% | pest or weed control at 31 g/ha [4]: 100% | plant injury at 31 g/ha ([5]; Zea mays, 504 h, 31 g a.i./ha): 70% | pest or weed control at 31 g/ha ([6]; Sida spinosa, 504 h, 31 g a.i./ha): 100% | pest or weed control at 31 g/ha ([7]; Abutilon theophrasti, 504 h, 31 g a.i./ha): 100% | pest or weed control at 31 g/ha ([8]; Glycine max, 504 h, 31 g a.i./ha): 60% | growth controlling degree, AMARE ([9]; 31 g a.i./ha): 100% | pest or weed control at 31 g/ha ([10]; Digitaria sanguinalis, 504 h, 31 g a.i./ha, read-out: growth controlling degree, DIGSP): 100% | pest or weed control at 63 g/ha ([11]; Schoenoplectiella juncoides, 336 h): 100% | pest or weed control at 63 g/ha ([12]; Oryza sativa, 504 h): 35% | pest or weed control at 63 g/ha ([13]; Echinochloa oryzicola, 336 h): 100% | Water Application Herbicidal Activity SAGPY (growth controlling degree) [14]: 95%

CC1CCc2c(c(Cl)cc(F)c2-c2ncc(C(F)(F)F)cc2Cl)O1 (centres unmarked) [Compound 7-4]
growth controlling degree, SETVI ([1]; 63 g a.i./ha): 80% | growth controlling degree, ECHCG ([2]; 63 g a.i./ha): 50% | growth controlling degree, ORYSA ([3]; 63 g a.i./ha): 60% | growth controlling degree, ZEAMX ([5]; 63 g a.i./ha): 70% | growth controlling degree, SIDSP ([6]; 63 g a.i./ha): 80% | growth controlling degree, ABUTH ([7]; 63 g a.i./ha): 100% | growth controlling degree, GLXMA ([8]; 63 g a.i./ha): 50% | growth controlling degree, AMARE ([9]; 63 g a.i./ha): 95% | growth controlling degree, DIGSP ([10]; 63 g a.i./ha): 50% | growth controlling degree, SIDSP [15]: 100% | growth controlling degree, AMARE [16]: 100% | growth controlling degree, ABUTH [17]: 100% | growth controlling degree, ZEAMX [18]: 40% | growth controlling degree, ECHCG [19]: 70% | growth controlling degree, XANST [20]: 10% | growth controlling degree, SETVI [21]: 100% | growth controlling degree, DIGSP [22]: 100% | growth controlling degree, ORYSA [23]: 30% | Water Application Herbicidal Activity SCPJO (growth controlling degree) [11]: 90% | Water Application Herbicidal Activity ORYSA (growth controlling degree) [12]: 0% | Water Application Herbicidal Activity ECHOR (growth controlling degree) [13]: 70%
